Results as given in patent US7732450B2, “Antifungal ketoconazole composition for topical use” (Boult Wade Tennant, priority 2000, dated 2010).

Assay: Solubility of ketoconazole in solvent media at room temperature
Format: physicochemical
Conditions: for Solubility: room temperature (21° C.)
Method: The solubility of ketoconazole in each of isopropyl alcohol, water and polyethoxylated glyceryl cocoate were established at room temperature (21° C.).
The solubility of ketoconazole in a composition of the present invention, prepared as in Example 1, containing 55% isopropyl alcohol, 35% water and 10% polyethoxylated glyceryl cocoate was also established at room temperature (21° C.).

In the case of `CC(=O)N1CCN(c2ccc(OCC3COC(Cn4ccnc4)(c4ccc(Cl)cc4Cl)O3)cc2)CC1` (centres unmarked) [ketoconazole, 1-acetyl-4-[4-[2-(2,4-dichlorophenyl)-2-imidazol-1-ylmethyl-1,3-dioxolan-4-ylmethoxy]phenyl]piperazine], the Solubility (in composition of 55% isopropyl alcohol, 35% water and 10% polyethoxylated glyceryl cocoate) is reported as 2.8 wt %, the Solubility (in isopropyl alcohol) is reported as 0.4722 wt % and the Solubility (in polyethoxylated glyceryl cocoate) is reported as 0.8682 wt %. For the same compound, the Solubility (in water) was 0.0233 wt % and the “Solubility of ketoconazole in three-component solvent system” value (ternary solvent system (water, alcohol, non-ionic surface active agent)) was “up to 3 wt %”.
